Residues, ends and D or L forms follow the SMILES beside them. *: point of attachment. Cbz = O=C(OCc1ccccc1)*; OtBu = CC(C)(C)O*; βAla = NCCC(=O)O
melting point [°C] | SMILES
245 | CNc1ncnc2ccc(I)cc12
104 to 106 | CC(O)c1cc2ccccc2cn1 (stereo not given)
241 to 242 | CC1(C)c2cc(C(=O)O)ccc2Oc2ncccc21
199 to 201 | Cc1nn(-c2cc3nc(S(C)=O)sc3cc2F)c(=O)n1C (stereo not given)
138 to 140 | CCOC(=O)C(=CNc1cc(=O)c2ccccc2o1)C(=O)OCC
212 to 213 | Cc1ccc(N2CC(COc3ccc(C(=O)O)cc3)CC2=O)cc1 (stereo not given)
169 to 171 | O=C(Nc1cccc(F)c1)C1C(=O)Sc2ccccc21 (stereo not given)
179 to 180 | COc1ccc(S(=O)(=O)N2CCc3cccc(-c4ccc(O)cc4)c32)cc1
214 to 216 | Nc1nccc(C=Cc2ccc([N+](=O)[O-])cc2)n1
93 | CN(C)S(=O)(=O)n1c(C#N)nc2ccccc21
175 to 178 | C=CCc1ccc(C2=NNC(=O)CC2)cc1O
192 to 193 | N#Cc1cccc2c1N(Cc1ccc(Cl)s1)C(=O)C21COc2cc3c(cc21)OCO3 (stereo not given)
214 to 217 | C=C(C(=O)c1ccc(C=CC(=O)O)cc1)c1c(F)c(F)c(F)c(F)c1F
146 | Brc1ccc2nc(-c3ccccc3)nn2c1
120 to 121 | C=CCOC1(C(F)(F)F)CN(C2CC2)C(=O)Nc2ccc(Cl)cc21 (stereo not given)
320 | NC(=O)c1nc(-c2cnc3nc[nH]c3c2)nc2c1[nH]c(=O)n2-c1ccccc1C(F)(F)F
133 to 137 | CNC(=O)C(Cc1ccc(OC)cc1)NC(=O)C(CC(C)C)C(S)CC(=O)OC(C)(C)C (stereo not given)
199 to 205 | COCN1C(=O)C(NC(=O)Nc2cccc(C(=O)NS(C)(=O)=O)c2)CN(c2ccccc2)c2ccccc21 (stereo not given)
208 to 210 | COCCNC(=O)c1c(O)c2ccccc2n(C)c1=N

melting point [°C] | SMILES
171 to 172 | CCCCN(CCCC)c1ccc(C(=O)c2ccccc2C(=O)O)cc1
171 | CCNc1nc(N)nc(N)n1
147 to 148 | COc1ccc(C(=O)N2c3ccccc3C(N3CCc4ccccc43)CC2C)cc1OC (stereo not given)
157 to 159 | Nc1cc(C(c2cc(F)ccc2F)S(=O)(=O)c2ccc(F)cc2)c(Cl)cn1 (stereo not given)
74 to 76 | Cc1ccc(C(=O)Oc2ccccc2)cc1
184 to 185 | CCOC(=O)NN=Cc1c[nH]c(Cc2ccccc2)n1
126 | CC(C)C(NC(=O)C(CC(=O)OC(C)(C)C)NC(=O)CCNC(=O)OCc1ccccc1)C(=O)OC(C)(C)C (stereo not given) ({Cbz-βAla}-Asp(OtBu)-Val-OtBu; configuration not given here)
255 to 258 | Cc1cccc(-c2nc(C(C)C)[nH]c2-c2cccc(-c3ccc(S(N)(=O)=O)cc3)c2)n1
> 300 | COc1ccc(-c2cc(=Nc3c(C)cc(C)cc3C)n(C)c(NN)n2)cc1OC
190 to 191 | N#Cc1cc2sccc2nc1I
232 to 233 | COc1oc(-c2ccc(NS(=O)(=O)c3sc4ccc(F)cc4c3C)c(S(C)(=O)=O)c2)nc1C
96 to 98 | COc1ccc([N+](=O)[O-])nc1C
253 to 260 | CC1(C)CC=Nc2nc(N)c3ccccc3c21
121 to 122 | Cc1ccc(CCC(C)(C)NCC(O)c2cc3ccccc3o2)cc1 (stereo not given)
134 to 138 | CCC(C)(NC(=O)c1cc(Cl)c(N)c(Cl)c1)C(=O)CCl (stereo not given)
56 to 57 | CCc1cc(Cc2cc(CC)c(N=C=O)c(CC)c2)cc(CC)c1N=C=O
140 | COc1ccc2ccc(N3C(=O)c4ccccc4C3CC(=O)C3CCCCC3)nc2n1 (stereo not given)
90 | CC#CCOc1ccc(S(=O)(=O)C(C(=O)O)C2CCN(C(=O)c3ccccc3)CC2)cc1 (stereo not given)

SMILES | melting point [°C]
CC(=O)OC1CC(=O)N(CC(N)=O)C1 (stereo not given) | 84 to 86
Cc1[nH]c2cccc3c2c1CC1C3=CC(C(=O)NN)CN1C (stereo not given) | 235 to 240
N=C(NCc1cccnc1)N[N+](=O)[O-] | 185 to 190

Reference: a melting point compilation (Tetko et al.; mined from patent text by program, amines drawn as free bases though some values may be those of a salt)
